Data published in patent US20200138734A1, “TOPICAL FORMULATION FOR TREATING BRUISING” (priority 2018, published 2020).
Read-outs that look alike come from different tables or passages of the source.

Tested on: bruise
[1] = lower concentrations within 2% to 20% by weight

In the case of CCC(C)O (stereo not drawn) [2-Butanol], the bruise resolution (2-Butanol alone in the topical formulation, without penetrant) is reported as “would not provide the bruise resolution”, the “side-effects (pain, itching, redness, exfoliation)” value (4% -12% 2-Butanol by weight) is reported as “resolved” and the bruise resolution (10% 2-Butanol by weight of topical formulation) is reported as “very good bruise resolution”. The “frequency and severity of side-effects, such as pain, itching, redness and exfoliation” value (higher concentrations within 2% to 20% by weight) was “increased”, the “efficacy of bruise resolution” value [1] was “decreased” and the “frequency and severity of side-effects” value [1] was “decreased”.
